{"source": "paper PMC5306496", "about": "(British Journal of Clinical Pharmacology, 2016)", "origin": "cited, not measured here", "key": {"[1]": {"assay": "not given", "remark": "listed apart in the source"}, "[2]": {"conditions": "CVVHDF"}, "[3]": {"assay": "not given", "remark": "listed apart in the source"}, "[4]": {"conditions": "patients with SAB/RIE and CrCl > 30 ml min^−1, 6 mg kg^−1 once daily"}}, "note": "Like-named read-outs stand apart in the source and are kept apart here."}
{"substance": "daptomycin", "values": [{"measurement": "CL", "setting": "base model without CRRT patients, not-on-dialysis", "result": 11.4, "unit": "mL/h/kg"}, {"measurement": "CL", "setting": "base model without CRRT patients, not-on-dialysis, at 70 kg", "result": 0.80, "unit": "L/h"}, {"measurement": "CL", "setting": "base model, CAPD", "result": 2.98, "unit": "mL/h/kg"}, {"measurement": "CL", "setting": "base model, HD", "result": 3.43, "unit": "mL/h/kg"}, {"measurement": "C min that may be associated with elevated creatine phosphokinase (CPK)", "setting": "[1]; additional safety threshold", "result": "> 24300", "unit": "ng/mL"}, {"measurement": "safety threshold C max", "setting": "[1]; healthy volunteers with normal renal function, 12 mg kg^−1 Q24 h", "result": 197000, "unit": "ng/mL"}, {"measurement": "efficacy exposure reference AUC0–24h", "setting": "[1]; [4]", "result": "465 to 761", "unit": "µg·h/mL"}, {"measurement": "efficacy exposure reference C max", "setting": "[1]; [4]", "result": "66000 to 112000", "unit": "ng/mL"}, {"measurement": "C max", "setting": "[2]; 4 mg kg^−1/day, n = 4, range", "result": "24700 to 69700", "unit": "ng/mL"}, {"measurement": "C min", "setting": "[2]; 4 mg kg^−1/day, n = 4, range", "result": "2700 to 11900", "unit": "ng/mL"}, {"measurement": "C max", "setting": "[2]; 5 mg kg^−1/day, n = 2, range", "result": "34700 to 35700", "unit": "ng/mL"}, {"measurement": "C min", "setting": "[2]; 5 mg kg^−1/day, n = 2, range", "result": "3000 to 3700", "unit": "ng/mL"}, {"measurement": "C max", "setting": "[2]; 6 mg kg^−1/day, n = 2, range", "result": "20500 to 61700", "unit": "ng/mL"}, {"measurement": "C min", "setting": "[2]; 6 mg kg^−1/day, n = 2, range", "result": "1500 to 15900", "unit": "ng/mL"}, {"measurement": "clearance by CRRT as share of the total drug clearance", "setting": "[3]", "result": "40–50%"}, {"measurement": "PK linearity", "setting": "[3]; once‐daily doses of 6–12 mg kg^−1", "result": "linear PK profile"}, {"measurement": "amount of drug cleared by the kidneys", "setting": "[3]; patients with normal renal function", "result": "34–54%"}]}
